Each structure is given as a SMILES string.

The assay deals with T1, Somatostatin Receptor 2 (SSTR2) (Homo sapiens, UniProt P30874).
T1 construct: expressed in transfected cells
T1 sequence (P30874 whole entry, species assumed): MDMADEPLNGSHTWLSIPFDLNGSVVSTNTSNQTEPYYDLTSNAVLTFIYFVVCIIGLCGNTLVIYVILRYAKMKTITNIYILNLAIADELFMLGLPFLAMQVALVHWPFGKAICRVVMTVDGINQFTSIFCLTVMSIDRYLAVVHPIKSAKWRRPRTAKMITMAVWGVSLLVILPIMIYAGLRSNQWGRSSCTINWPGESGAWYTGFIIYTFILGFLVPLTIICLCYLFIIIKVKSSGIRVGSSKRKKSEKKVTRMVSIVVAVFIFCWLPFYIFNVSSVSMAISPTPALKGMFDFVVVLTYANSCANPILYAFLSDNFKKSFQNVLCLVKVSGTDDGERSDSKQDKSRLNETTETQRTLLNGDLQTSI
The assay can be described thus: Biochemical Assay for Activation of Somatostatin Receptor 2 (SSTR2), Cisbio HTRF cAMP assay. It counts as cell-based. Conditions: average pEC50; HTRF cAMP assay in stably-transfected cell line expressing SSTR2; cells incubated with compounds for 1-2h. Here is the method:
Biochemical Assay for Activation of Somatostatin Receptor 2 (SSTR2)
Agonistic activation of SSTRs leads to an […] production of intracellular cAMP levels. Cisbio's homogeneous time-resolved fluorescence (HTRF) cAMP assay was used to measure cAMP concentration in an high-throughput format. Increase in intracellular cAMP concentrations was measuring using a stably-transfected cell line expressing SSTR2. Test compounds were dissolved in DMSO. Cells were incubated with compounds for 1-2h, and subsequently competitive binding of cAMP produced due to the activation of SSTR2 by the test compounds was measured using the Cisbio cAMP Gs dynamic assay system (Perkin Elmer, Bedford, MA).
The average pEC50 was determined for the test compounds.
`Cc1cc(F)cc(-c2cnc3ccc4cc3c2N2CCC(CC2)NCC(CO)CCOc2c(C#N)cccc2-4)c1` (single isomer, unassigned) [Compound 90]: the EC50 (usually the concentration giving half of the maximal effect) was 15.8 nM. The same measure for `Cc1cc(F)cc(-c2cnc3ccc4cc3c2N2CCC(CC2)NC[C@H](CO)CCOc2c(C#N)cccc2-4)c1` (single isomer, unassigned) [Compound 91]: 6.31 nM; for `Cc1cc(F)cc(-c2cnc3ccc4cc3c2N2CCC(CC2)NCC[C@@H](N=[N+]=[N-])COc2c(C#N)cccc2-4)c1` (single isomer, unassigned) [Compound 96]: 0.794 nM; for `Cc1cc(F)cc(-c2cnc3ccc4cc3c2N2CCC(CC2)NCC[C@H](N=[N+]=[N-])COc2c(C#N)cccc2-4)c1` (single isomer, unassigned) [Compound 97]: 2.51 nM.

For `Cc1cc(F)cc(-c2cnc3ccc4cc3c2N2CCC(CC2)NCC[C@@H](N)COc2c(C#N)cccc2-4)c1` (single isomer, unassigned) [Compound 98], the EC50 was 316 nM. For `Cc1cc(F)cc(-c2cnc3ccc4cc3c2N2CCC(CC2)NCC[C@H](N)COc2c(C#N)cccc2-4)c1` (single isomer, unassigned) [Compound 99], the EC50 is 7.94 nM. Take `Cc1cc(F)cc(-c2cnc3ccc4cc3c2N2CCC(CC2)NC[C@@H](O)CCOc2c(C#N)cccc2-4)c1` (single isomer, unassigned) [Compound 100]: the EC50 is 2510 nM. The same measure for `Cc1cc(F)cc(-c2cnc3ccc4cc3c2N2CCC(CC2)NC[C@H](O)CCOc2c(C#N)cccc2-4)c1` (single isomer, unassigned) [Compound 101]: 1580 nM; for `Cc1cc(F)cc(-c2cnc3ccc4cc3c2N2CCC(CC2)NCC[C@@H](O)COc2c(C#N)cccc2-4)c1` (single isomer, unassigned) [Compound 102]: 398 nM; for `Cc1cc(F)cc(-c2cnc3ccc4cc3c2N2CCC(CC2)NCC[C@H](O)COc2c(C#N)cccc2-4)c1` (single isomer, unassigned) [Compound 103]: 3980 nM. The same measure for `Cc1cc(F)cc(-c2cnc3ccc(-c4cc(F)cc(C(N)=O)c4)cc3c2O[C@H]2CC[C@H](N)C2)c1` [Compound 1, 3-(4-(((1S,3S)-3-aminocyclopentyl)oxy)-3-(3-fluoro-5-methylphenyl)quinolin-6-yl)-5-fluorobenzamide]: 0.316 nM.

In the case of `Cc1cc(F)cc(-c2cnc3ccc(-c4cc(F)cc(C(N)=O)c4)cc3c2O[C@@H]2CC[C@H](N)C2)c1` [Compound 2], the EC50 is 1 nM. Regarding `Cc1cc(F)cc(-c2cnc3ccc(-c4cc(F)cc(C(N)=O)c4)cc3c2O[C@H]2CC[C@@H](N)C2)c1` [Compound 3], the EC50 is 7.94 nM. The value for `Cc1cc(F)cc(-c2cnc3ccc(-c4cc(F)cc(C(N)=O)c4)cc3c2O[C@@H]2CC[C@@H](N)C2)c1` [Compound 4] was 0.398 nM; that for `COc1cc(F)cc(-c2cnc3ccc(-c4cc(F)cc(C(N)=O)c4)cc3c2O[C@@H]2CC[C@H](N)C2)c1` [Compound 5] was 3.16 nM. The value for `COc1cc(F)cc(-c2cnc3ccc(-c4ccc5[nH]c(=O)[nH]c5c4)cc3c2O[C@@H]2CC[C@H](N)C2)c1` [Compound 6] was 63.1 nM. With `COc1cc(F)cc(-c2cnc3ccc(-c4cccc(C#N)c4O)cc3c2O[C@@H]2CC[C@H](N)C2)c1` [Compound 7], the EC50 was 20 nM.

For the molecule `Cc1cc(F)cc(-c2cnc3ccc(-c4ccc5[nH]c(=O)[nH]c5c4)cc3c2O[C@@H]2CC[C@H](N)C2)c1` [Compound 8], the EC50 is 6.31 nM.

For the molecule `Cc1cc(F)cc(-c2cnc3ccc(-c4cccc(C#N)c4O)cc3c2O[C@@H]2CC[C@H](N)C2)c1` [Compound 9], the EC50 was 3.16 nM. The value for `NC(=O)c1cc(F)cc(-c2ccc3ncc(-c4cc(F)cc(F)c4)c(O[C@@H]4CC[C@H](N)C4)c3c2)c1` [Compound 10] was 10 nM; that for `N[C@H]1CC[C@@H](Oc2c(-c3cc(F)cc(F)c3)cnc3ccc(-c4ccc5[nH]c(=O)[nH]c5c4)cc23)C1` [Compound 11] was 398 nM. For the molecule `N[C@@H]1CC[C@H](Oc2c(-c3cc(F)cc(F)c3)cnc3ccc(-c4cc(F)cc(F)c4)cc23)C1` [Compound 12, (1R,3S)-3-((3,6-bis(3,5-difluorophenyl)quinolin-4-yl)oxy) cyclopentanamine], the EC50 is 15.8 nM.

`N[C@H]1CC[C@@H](Oc2c(-c3cc(F)cc(F)c3)cnc3ccc(-c4cc(F)cc(F)c4)cc23)C1` [Compound 13]: the EC50 was 100 nM.

`N[C@@H]1CC[C@@H](Oc2c(-c3cc(F)cc(F)c3)cnc3ccc(-c4cc(F)cc(F)c4)cc23)C1` [Compound 14]: the EC50 was 12.6 nM. Turning to `N[C@H]1CC[C@H](Oc2c(-c3cc(F)cc(F)c3)cnc3ccc(-c4cc(F)cc(F)c4)cc23)C1` [Compound 15], the EC50 was 12.6 nM. In the case of `N#Cc1cccc(-c2ccc3ncc(-c4cc(F)cc(F)c4)c(O[C@H]4CC[C@@H](N)C4)c3c2)c1O` [Compound 16], the EC50 is 200 nM. The value for `NC1CC(Oc2c(-c3cc(F)cc(F)c3)cnc3ccc(-c4cc(F)cc(F)c4)cc23)C1` (centres unmarked) [Compound 17] was 12.6 nM; that for `Cc1cc(F)cc(-c2cnc3ccc(-c4cc(F)cc(C(N)=O)c4)cc3c2O[C@H]2C[C@@H](N)C2)c1` [Compound 18] was 12.6 nM.

For `Cc1cc(F)cc(-c2cnc3ccc(-c4cc(F)cc(C(N)=O)c4)cc3c2O[C@H]2C[C@H](N)C2)c1` [Compound 19], the EC50 is 1 nM. The value for `NCC1CCCCC1Oc1c(-c2cc(F)cc(F)c2)cnc2ccc(-c3cc(F)cc(F)c3)cc12` (centres unmarked) [Compound 20] was 3980 nM; that for `Cc1cc(F)cc(-c2cnc3ccc(-c4cc(F)cc(C(N)=O)c4)cc3c2OC2CCCC(CN)C2)c1` (centres unmarked) [Compound 21] was 20 nM; that for `N#Cc1cccc(-c2ccc3ncc(-c4cc(F)cc(F)c4)c(OC4CCCC(N)C4)c3c2)c1O` (centres unmarked) [Compound 22] was above 10000 nM.

Regarding `CO[C@@H]1CN(c2c(-c3cc(F)cc(F)c3)cnc3c2nc(-c2cccc(C#N)c2O)n3C)CC[C@H]1N` [Compound 23, 3-(7-((3R,4R)-4-amino-3-methoxypiperidin-1-yl)-6-(3,5-difluorophenyl)-3-methyl-3H-imidazo[4,5-b]pyridin-2-yl)-2-hydroxybenzonitrile], the EC50 was above 10000 nM.

In the case of `CO[C@@H]1CN(c2c(-c3cc(F)cc(F)c3)cnc3c2nc(-c2cc(F)cc(C(N)=O)c2)n3C)CC[C@H]1N` [Compound 24], the EC50 is above 5010 nM.

In the case of `CO[C@@H]1CN(c2c(-c3cc(F)cc(F)c3)cnc3c2nc(-c2ccc4[nH]c(=O)[nH]c4c2)n3C)CC[C@H]1N` [Compound 25], the EC50 is above 10000 nM. Regarding `CO[C@@H]1CN(c2c(-c3cc(C)cc(F)c3)cnc3c2nc(-c2ccc4[nH]c(=O)[nH]c4c2)n3C)CC[C@H]1N` [Compound 27], the EC50 was above 10000 nM. The value for `COc1cc(F)cc(-c2cnc3c(nc(-c4cccc(C#N)c4O)n3C)c2N2CC[C@@H](N)[C@H](OC)C2)c1` [Compound 29] was above 10000 nM; that for `COc1cc(F)cc(-c2cnc3c(nc(-c4cc(F)cc(C(N)=O)c4)n3C)c2N2CC[C@@H](N)[C@H](OC)C2)c1` [Compound 30] was 1000 nM.

Regarding `COc1cc(F)cc(-c2cnc3c(nc(-c4ccc5[nH]c(=O)[nH]c5c4)n3C)c2N2CC[C@@H](N)[C@H](OC)C2)c1` [Compound 31], the EC50 was above 10000 nM. The same measure for `COc1cc(F)cc(-c2cnc3c(nc(-c4ccc5[nH]c(=O)[nH]c5c4)n3C)c2N2CCC(N)CC2)c1` [Compound 32]: above 10000 nM; for `COc1cc(F)cc(-c2cnc3c(nc(-c4cc(F)cc(C(N)=O)c4)n3C)c2N2CCC(N)CC2)c1` [Compound 33]: 1580 nM; for `COc1cc(F)cc(-c2cnc3c(nc(-c4cccc(C#N)c4O)n3C)c2N2CCC(N)CC2)c1` [Compound 34]: 501 nM.

For `Cc1cc(F)cc(-c2cnc3c(nc(-c4cc(F)cc(C(N)=O)c4)n3C)c2N2CCC(N)CC2)c1` [Compound 35, 3-(7-(4-aminopiperidin-1-yl)-6-(3-fluoro-5-methylphenyl)-3-methyl-3H-imidazo[4,5-b]pyridin-2-yl)-5-fluorobenzamide], the EC50 is 158 nM. The value for `Cc1cc(F)cc(-c2cnc3c(nc(-c4ccc5[nH]c(=O)[nH]c5c4)n3C)c2N2CCC(N)CC2)c1` [Compound 36] was above 10000 nM.

Consider `Cc1cc(F)cc(-c2cnc3c(nc(-c4cccc(C#N)c4O)n3C)c2N2CCC(N)CC2)c1` [Compound 37], for which the EC50 was 316 nM.

As for `Cn1c(-c2cc(F)cc(C(N)=O)c2)nc2c(N3CCC(N)CC3)c(-c3cc(F)cc(F)c3)cnc21` [Compound 38], the EC50 is 2000 nM.

For the molecule `Cn1c(-c2ccc3[nH]c(=O)[nH]c3c2)nc2c(N3CCC(N)CC3)c(-c3cc(F)cc(F)c3)cnc21` [Compound 39], the EC50 was above 10000 nM. In the case of `Cn1c(-c2cccc(Br)c2O)nc2c(N3CCC(NC(=O)OC(C)(C)C)CC3)c(-c3cc(F)cc(F)c3)cnc21` [Compound 40], the EC50 is above 10000 nM.

Take `Cn1c(-c2cccc(Br)c2O)nc2c(N3CCC(N)CC3)c(-c3cc(F)cc(F)c3)cnc21` [Compound 41]: the concentration for a half-maximal effect (EC50) was 158 nM. The value for `Cn1c(-c2cccc(C#N)c2O)nc2c(N3CCC(NC(=O)OC(C)(C)C)CC3)c(-c3cc(F)cc(F)c3)cnc21` [Compound 42] was above 10000 nM; that for `Cn1c(-c2cccc(C#N)c2O)nc2c(N3CCC(N)CC3)c(-c3cc(F)cc(F)c3)cnc21` [Compound 43] was 6310 nM; that for `Cn1c(-c2cccc(Br)c2O)nc2ncc(-c3cc(F)cc(F)c3)c(N3CCC(NC(=O)OC(C)(C)C)CC3)c21` [Compound 44] was above 10000 nM. The same measure for `Cn1c(-c2cccc(Br)c2O)nc2ncc(-c3cc(F)cc(F)c3)c(N3CCC(N)CC3)c21` [Compound 45]: 398 nM.

The values are drawn from US20260053794A1, “SOMATOSTATIN RECEPTOR 2 AGONISTS AND USES THEREOF” (Exelixis, Inc., priority 2022, published 2026).
